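Method: 48-hour compound exposure of cells in 96-well plates, five concentrations, linear interpolation of endpoints. At the GI50, growth is halved. TGI marks complete inhibition of growth.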
Columns and labels:
Assay in all cases: DTP human tumour cell line panel, 48 h
HOP-92 NSCLC = test system: HOP-92 NSCLC
MDA-MB-468 breast = test system: MDA-MB-468 breast
NCI/ADR-RES ovarian = test system: NCI/ADR-RES ovarian
OVCAR-8 ovarian = test system: OVCAR-8 ovarian
MDA-MB-231 breast = test system: MDA-MB-231 breast
SR leukemia = test system: SR leukemia
HL-60(TB) leukemia = test system: HL-60(TB) leukemia
SF-295 CNS = test system: SF-295 CNS
SNB-75 CNS = test system: SNB-75 CNS
SF-268 CNS = test system: SF-268 CNS
HCT-15 colon = test system: HCT-15 colon
NCI-H226 lung = test system: NCI-H226 lung
SF-539 CNS = test system: SF-539 CNS
RXF 393 renal = test system: RXF 393 renal
SK-MEL-2 melanoma = test system: SK-MEL-2 melanoma
COLO 205 colon = test system: COLO 205 colon
SK-OV-3 ovarian = test system: SK-OV-3 ovarian
SK-MEL-28 melanoma = test system: SK-MEL-28 melanoma
HT29 colon = test system: HT29 colon
MOLT-4 leukemia = test system: MOLT-4 leukemia
UO-31 renal = test system: UO-31 renal
OVCAR-4 ovarian = test system: OVCAR-4 ovarian
UACC-257 melanoma = test system: UACC-257 melanoma
OVCAR-3 ovarian = test system: OVCAR-3 ovarian
T-47D breast = test system: T-47D breast
LOX IMVI melanoma = test system: LOX IMVI melanoma
CCRF-CEM leukemia = test system: CCRF-CEM leukemia
NCI-H522 lung = test system: NCI-H522 lung
KM12 colon = test system: KM12 colon
A498 renal = test system: A498 renal
HOP-62 NSCLC = test system: HOP-62 NSCLC
NCI-H23 lung = test system: NCI-H23 lung
MALME-3M melanoma = test system: MALME-3M melanoma
IGROV1 ovarian = test system: IGROV1 ovarian
M14 melanoma = test system: M14 melanoma
K-562 leukemia = test system: K-562 leukemia
OVCAR-5 ovarian = test system: OVCAR-5 ovarian
EKVX NSCLC = test system: EKVX NSCLC
NCI-H460 lung = test system: NCI-H460 lung
CAKI-1 renal = test system: CAKI-1 renal
SNB-19 CNS = test system: SNB-19 CNS
BT-549 breast = test system: BT-549 breast
DU-145 prostate = test system: DU-145 prostate
HS 578T breast = test system: HS 578T breast
TK-10 renal = test system: TK-10 renal
A549 NSCLC = test system: A549 NSCLC
PC-3 prostate = test system: PC-3 prostate
RPMI-8226 leukemia = test system: RPMI-8226 leukemia
ACHN renal = test system: ACHN renal
SN12C renal = test system: SN12C renal
UACC-62 melanoma = test system: UACC-62 melanoma
786-0 renal = test system: 786-0 renal
HCC-2998 colon = test system: HCC-2998 colon
SK-MEL-5 melanoma = test system: SK-MEL-5 melanoma
MDA-MB-435 = test system: MDA-MB-435
U251 CNS = test system: U251 CNS
MCF7 breast = test system: MCF7 breast
SW-620 colon = test system: SW-620 colon
HCT-116 colon = test system: HCT-116 colon

## COc1cnc2c(c1)C(=O)c1c-2n(CCCNCCO)c(=O)c2cc(F)ccc12
HOP-92 NSCLC
  GI50: 1660 nM
  TGI: 7260 nM
MDA-MB-468 breast
  GI50: 160 nM
  TGI: 351 nM
NCI/ADR-RES ovarian
  GI50: 678 nM
  TGI: 2580 nM
OVCAR-8 ovarian
  GI50: 555 nM
  TGI: 2790 nM
MDA-MB-231 breast
  GI50: 1640 nM
  TGI: 4100 nM
SR leukemia
  GI50: 97.1 nM
HL-60(TB) leukemia
  GI50: 190 nM
  TGI: 1370 nM
SF-295 CNS
  GI50: 306 nM
  TGI: 1230 nM
SNB-75 CNS
  GI50: 778 nM
  TGI: 5310 nM
SF-268 CNS
  GI50: 1200 nM
  TGI: 11000 nM
HCT-15 colon
  GI50: 328 nM
  TGI: 1560 nM
NCI-H226 lung
  GI50: 452 nM
  TGI: 1320 nM
SF-539 CNS
  GI50: 326 nM
  TGI: 1220 nM
RXF 393 renal
  GI50: 885 nM
  TGI: 2540 nM
SK-MEL-2 melanoma
  GI50: 2360 nM
  TGI: 4360 nM
COLO 205 colon
  GI50: 838 nM
  TGI: 2770 nM
SK-OV-3 ovarian
  GI50: 668 nM
  TGI: 2450 nM
SK-MEL-28 melanoma
  GI50: 1920 nM
  TGI: 5690 nM
HT29 colon
  GI50: 300 nM
  TGI: 1380 nM
MOLT-4 leukemia
  GI50: 174 nM
  TGI: 757 nM
UO-31 renal
  GI50: 195 nM
  TGI: 1170 nM
OVCAR-4 ovarian
  GI50: 1710 nM
  TGI: 8650 nM
UACC-257 melanoma
  GI50: 2130 nM
  TGI: 7970 nM
OVCAR-3 ovarian
  GI50: 819 nM
  TGI: 6510 nM
T-47D breast
  GI50: 269 nM
  TGI: 1550 nM
LOX IMVI melanoma
  GI50: 167 nM
  TGI: 502 nM
CCRF-CEM leukemia
  GI50: 206 nM
  TGI: 966 nM
NCI-H522 lung
  GI50: 420 nM
  TGI: 1830 nM
KM12 colon
  GI50: 872 nM
  TGI: 10500 nM
A498 renal
  GI50: 1440 nM
  TGI: 7880 nM
HOP-62 NSCLC
  GI50: 207 nM
  TGI: 605 nM
NCI-H23 lung
  GI50: 259 nM
  TGI: 785 nM
MALME-3M melanoma
  GI50: 851 nM
  TGI: 2560 nM
IGROV1 ovarian
  GI50: 510 nM
  TGI: 2680 nM
M14 melanoma
  GI50: 589 nM
  TGI: 2410 nM
K-562 leukemia
  GI50: 280 nM
  TGI: 6050 nM
OVCAR-5 ovarian
  GI50: 661 nM
  TGI: 2420 nM
EKVX NSCLC
  GI50: 1210 nM
  TGI: 5140 nM
NCI-H460 lung
  GI50: 198 nM
  TGI: 908 nM
CAKI-1 renal
  GI50: 220 nM
  TGI: 1680 nM
SNB-19 CNS
  GI50: 666 nM
  TGI: 8060 nM
BT-549 breast
  GI50: 969 nM
  TGI: 4040 nM
DU-145 prostate
  GI50: 287 nM
  TGI: 3590 nM
HS 578T breast
  GI50: 2020 nM
  TGI: 12400 nM
TK-10 renal
  GI50: 1470 nM
  TGI: 4180 nM
A549 NSCLC
  GI50: 198 nM
  TGI: 1100 nM
PC-3 prostate
  GI50: 667 nM
  TGI: 10500 nM
RPMI-8226 leukemia
  GI50: 250 nM
  TGI: 1880 nM
ACHN renal
  GI50: 175 nM
  TGI: 465 nM
SN12C renal
  GI50: 287 nM
  TGI: 1560 nM
UACC-62 melanoma
  GI50: 496 nM
  TGI: 1830 nM
786-0 renal
  GI50: 277 nM
  TGI: 962 nM
HCC-2998 colon
  GI50: 549 nM
  TGI: 1700 nM
SK-MEL-5 melanoma
  GI50: 477 nM
  TGI: 1640 nM
MDA-MB-435
  GI50: 1270 nM
  TGI: 4520 nM
U251 CNS
  GI50: 268 nM
  TGI: 3240 nM
MCF7 breast
  GI50: 101 nM
  TGI: 1700 nM
SW-620 colon
  GI50: 367 nM
  TGI: 2610 nM
HCT-116 colon
  GI50: 183 nM
  TGI: 657 nM

From PubChem BioAssay (NCI)
